According to ChEMBL document CHEMBL3301472, “MMV Malaria Box HIV and cytotoxicity screening”:

Key:
[1] = MMV: MTT Cytotoxicity Assay Day 7 pi of Assay #7 (compound washed out Day 1 pi), U87-CD4-CXCR4 cells, % cell death @ 5mM compound; format: toxicity, cell-based; details: human, u87-cd4-cxcr4, 5000 µM
[2] = system: Human immunodeficiency virus 1; test: MMV: HIV CCR5-tropic env JRFL pseudovirus assay produces luciferase signal in lieu of replicating viral particles Day 3 pi, U87-CD4-CCR5, % inhibition at 5 mM compound; format: functional; set-up: dose or concentration left out as unconfirmed; details: Human immunodeficiency virus 1, JR-FL, U87/CD4/CCR5, 72 h
[3] = MMV: MTT Cytotoxicity Assay Day 3 pi, U87-CD4-CXCR4 cells, % cell death @ 5mM compound; format: toxicity, cell-based; details: human, u87-cd4-cxcr4, 5000 µM
[4] = MMV: MTT Cytotoxicity Assay Day 7 pi of Assay #6 (compound washed out Day 1 pi), U87-CD4-CCR5 cells, % cell death @ 5mM compound; format: toxicity, cell-based; details: human, u87-cd4-ccr5, 5000 µM
[5] = MMV: MTT Cytotoxicity Assay Day 3 pi, U87-CD4-CCR5 cells, % cell death @ 5mM compound; format: toxicity, cell-based; details: human, u87-cd4-ccr5, 5000 µM
[6] = MMV: MTT Cytotoxicity Assay Day 7 pi of Assay #11 (NO washout), U87-CD4-CXCR4 cells, % cell death @ 5mM compound; format: toxicity, cell-based; details: human, u87-cd4-cxcr4, 5000 µM
[7] = MMV: MTT Cytotoxicity Assay Day 7 pi of Assay #10 (NO washout), U87-CD4-CCR5 cells, % cell death @ 5mM compound; format: toxicity, cell-based; details: human, u87-cd4-ccr5, 5000 µM
[8] = system: Human immunodeficiency virus 1; test: MMV: HIV CXCR4-tropic env HxB2 pseudovirus assay produces luciferase signal in lieu of replicating viral particles Day 3 pi, U87-CD4-CXCR4, % inhibition at 5 mM compound; format: functional; set-up: dose or concentration left out as unconfirmed; details: Human immunodeficiency virus 1, HxB2, U87.CD4.CXCR4, 72 h
[9] = system: Human immunodeficiency virus 1; test: MMV: HIV NL4-3 CXCR4-tropic replication-competent virus, NO washout, P24 ELISA Day 7 pi, U87-CD4-CXCR4, % inhibition at 5 mM compound; format: functional; set-up: dose or concentration left out as unconfirmed; details: Human immunodeficiency virus 1, NL4-3, U87.CD4.CXCR4, 168 h
[10] = system: Human immunodeficiency virus 1; test: MMV: HIV NL4-3 CXCR4-tropic replication-competent virus, virus & compound washed out Day 1 pi, P24 ELISA Day 7 pi, U87-CD4-CXCR4, % inhibition at 5 mM compound; format: functional; set-up: dose or concentration left out as unconfirmed; details: Human immunodeficiency virus 1, NL4-3, U87.CD4.CXCR4
[11] = system: Human immunodeficiency virus 1; test: MMV: HIV CXCR4-tropic env NL4-3 pseudovirus assay produces luciferase signal in lieu of replicating viral particles Day 3 pi, U87-CD4-CXCR4, % inhibition at 5 mM compound; format: functional; set-up: dose or concentration left out as unconfirmed; details: Human immunodeficiency virus 1, NL4-3, U87.CD4.CXCR4, 72 h
[12] = system: Human immunodeficiency virus 1; test: MMV: HIV JRFL CCR5-tropic replication-competent virus, virus & compound washed out Day 1 pi, P24 ELISA Day 7 pi, U87-CD4-CCR5, % inhibition at 5 mM compound; format: functional; set-up: dose or concentration left out as unconfirmed; details: Human immunodeficiency virus 1, JR-FL

Structure (SMILES) | % Cell Death [1] | inhibition [2] | % Cell Death [3] | % Cell Death [4] | % Cell Death [5] | % Cell Death [6] | % Cell Death [7] | inhibition [8] | inhibition [9] | inhibition [10] | inhibition [11] | inhibition [12]
COc1cccc(C2(C)Nc3ccccc3-c3nc4ccccc4n32)c1 (stereo unspecified) | 25 | 9% | 28 | 37 | -22 | 92 | 35 |  |  |  |  | 
O=C(NC1CCN(Cc2ccccc2)CC1)c1cc(-c2cccnc2)nc2ccc(Cl)cc12 | -10 | 8% | 34 | 11 | -9 | 40 | 43 | 8% |  |  |  | 
Nc1ccn([C@@H]2O[C@H](CO)[C@@H](O)[C@H]2O)c(=O)n1 [CYTIDINE] | 24 |  | 28 | -9 | -30 | 0 | 26 |  | 6% |  |  | 
CC1(c2ccccc2)Nc2ccccc2-c2nc3ccccc3n21 (stereo unspecified) | -19 |  | 24 | -21 | 10 | -43 | 29 |  | 4% |  |  | 
COc1cc(OC)c(N(C)C(=O)c2cc3c(s2)-c2ccccc2S(=O)(=O)C3)cc1Cl | -18 |  | 33 | 22 | 28 | -30 | -2 |  | 2% | 7% |  | 
Nc1ccc(-c2nc3cc(Oc4ccc(Oc5ccc6[nH]c(-c7ccc(N)cc7)nc6c5)cc4)ccc3[nH]2)cc1 | 68 | 4% | 51 | 12 | 21 | 21 | 113 |  |  |  |  | 
O=C(O)C(=O)O.Oc1ccccc1CN1CCN(C(c2ccccc2)c2ccccc2)CC1 | 28 |  | 12 | 2 | 4 | 56 | 22 |  | 0% |  |  | 
Cc1sc(NC(=O)c2ccco2)c(C(c2cccnc2)N2CCC(Cc3ccccc3)CC2)c1C (stereo unspecified) | 94 | 8% | 88 | 81 | 110 | 104 | 107 |  |  |  |  | 
Cc1ccc(OCCCCCCNCCO)c(C)c1 | -10 | -2% | 28 | 30 | -3 | -10 | 15 |  |  |  |  | 
Cc1c(C)n(CC(O)CNC2CCCCC2C)c2ccccc12 (stereo unspecified) | -17 |  | 18 | -11 | -17 | -68 | -14 |  | 7% |  |  | 
CCCC(c1nnnn1C1CCCCC1)N1CCN(C(=O)c2ccco2)CC1.Cl (stereo unspecified) | -21 |  | 12 | -14 | -3 | 34 | -2 |  | 7% |  |  | 
CCN(CC)CCn1c(=N)n(CC(O)c2ccc(Cl)c(Cl)c2)c2ccccc21.Cl (stereo unspecified) | 20 |  | 4 | 14 | 18 | 52 | -29 |  | 0% |  | 10% | 
CSC1=NC(=Nc2c(C)cccc2C)C2(CCC(C(C)(C)C)CC2)N1c1ccc(Cl)cc1 (stereo unspecified) | -6 |  | 6 | 1 | 3 | 0 | 12 |  | 9% |  |  | 
CC(=O)Nc1nnc(SCc2c(C)cc(C(C)(C)C)cc2C)s1 | 10 | 8% | 27 | 3 | 14 | 6 | 3 |  |  |  |  | 
CCCn1c(=N)c(C(=O)NC2CCCCC2)cc2c(=O)n3cccc(C)c3nc21 | -17 |  | 35 | 0 | 29 | -51 | 43 |  | 4% |  |  | 
CCCc1cc(O)c2c3c(c(=O)oc2c1)CN(C)CC3 | 57 |  | 44 | -8 | 22 | 40 | 45 |  | 6% |  | 4% | 
Cc1ccc(S(=O)(=O)c2c(COC(=O)c3cccc(C)c3)c(-c3ccccc3)nn2C)cc1 | 22 |  | 22 | 5 | 27 | 31 | 16 |  | 7% |  |  | 5%
O=C1c2ccc3c4c(ccc(c24)C(=O)N1CCCCO)C(=O)N(CCCCO)C3=O | -43 |  | 27 | 16 | 39 | -30 | 61 |  | 2% |  |  | 
COCCn1c(C)nc2ccccc2c1=O | 11 |  | 19 | -8 | 23 | 32 | 14 |  |  | 2% |  | 3%
COc1ccccc1C(=O)ON=C(N)Cc1cccc2ccccc12 | 42 |  | 47 | -17 | 23 | -11 | 43 |  | 0% |  | 1% | 
COc1ccc(C(=O)Nc2nonc2-c2ccc(OC)c(OC)c2)cc1Cl | 53 | 5% | 47 | 13 | 64 | 67 | 100 | 9% |  |  |  | 6%
CCCCCCOC(=O)C1=C(C)NC(=O)NC1c1ccccc1F (stereo unspecified) | -33 | -2% | 29 | -10 | 16 | -34 | 40 | 3% |  |  |  | 
OC(Cn1nnc2ccccc21)Cn1c2ccc(Br)cc2c2cc(Br)ccc21 (stereo unspecified) | 8 |  | -29 | 2 | 15 | 18 | 27 |  |  | 1% |  | -2%
COc1cccc(Cn2c(Oc3ccccc3)nc3c2c(=O)n(C)c(=O)n3C)c1 | 3 |  | 15 | 32 | -1 | 32 | 39 |  | 9% |  |  | 
CC(C)CCNCC(O)Cn1c2ccccc2c2ccccc21.Cl (stereo unspecified) | -6 |  | 32 | -10 | 6 | -6 | -11 |  | 1% |  |  | 
COc1ccc(-c2nonc2NC(=O)c2cccc(Cl)c2)cc1OC | 49 | -2% | 45 | 13 | 61 | 97 | 100 |  |  |  |  | 
Cc1ccccc1OCCSc1nc2ccc(NC(=O)c3ccccc3)cc2s1 | 1 | 10% | 36 | 31 | 96 | 100 | 106 |  |  |  |  | 
OC1CCCCC1C1(NC(=S)Nc2ccccc2)CCCCC1 (stereo unspecified) | 29 |  | 11 | -5 | 23 | -25 | 4 |  | 8% |  |  | 7%
CCOc1cc(Cl)c(C(C)NC(=O)c2ccccc2)cc1OCC (stereo unspecified) | -6 |  | 34 | -4 | 28 | 90 | 15 |  |  | 1% |  | 0%
